Data published in patent publication US10640452B2, “Branched trialkyl quaternary ammonium compounds” (Eastman Chemical Company, priority 2018, dated 2020).

How the values were obtained:
[1] = Ready Biodegradability - CO2 Evolution Test OECD 301B
Procedure: The biodegradability of the branched aldehyde intermediates of Example 2 (4-ethyl-2-methyloctanal) and Example 25 (2,4-diethyl-2-octenal) were determined by the Ready Biodegradability—CO2 Evolution Test—Degradation of test compound according to OECD Guidelines for Testing of Chemicals CO2 Evolution Test 301B.

Staphylococcus aureus = assay: Antimicrobial screening, microplate dilution assay (MIC) and agar spotting (MLC); type: cell-based; conditions: Staphylococcus aureus (Gram pos bacteria); for MIC < 10%: lowest concentration with growth less than 10% of control; for MIC < 10% / MIC < 50%: approx. 24 h, 32° C.; for MIC < 50%: lowest concentration with growth less than 50% of control; for MLC: minimum lethal concentration, absence of growth on agar
Procedure: (§1) The minimum inhibitory concentration (MIC) and the minimum lethal concentration (MLC) of the chemicals were determined using a microplate dilution assay. Quats were provided as aqueous solutions, while Triclosan and Chloroxylenol were provide as powders which were first dissolved at 5 weight percent in absolute ethanol. A two-fold serial dilution series of each test chemical was prepared in Trypticase Soy Broth at 20% of the standard concentration (TSB20) and in Sabouraud Dextrose Broth at 20% of the standard concentration (SDB20) in 96-well micro-titer plates. A total of 10 dilutions were prepared and four replicate tests were performed for each dilution. […] Control solutions containing only media were included for each plate. Suspensions of Staphylococcus aureus, Escherichia coli, and Candida albicans were prepared from one-day old agar plate cultures in Butterfields Phosphate Diluent to a concentration of approximately 10^7 to 10^8 cells per milliliter. Each test well was inoculated with the diluted culture suspensions at a concentration of 10^3 to 10^4 cells per well and then incubated at 32° C. with shaking at 150 rpm for approximately 24 hours, after which the optical density of each well was determined spectrophotometrically at 600 nm. Wells containing uninoculated media without test chemical were included in each plate as negative controls and, following inoculation, as positive controls.
(§2) Selected wells at or below the MIC were tested for MLC by spotting three microliters from each replicate well onto Trypticase Soy agar for S. aureus and E. coli, or Sabouraud Dextrose agar for C. albicans.

Escherichia coli = assay: as above; type: cell-based; conditions: Escherichia coli (Gram neg bacteria); for MIC < 10%: lowest concentration with growth less than 10% of control; for MIC < 10% / MIC < 50%: approx. 24 h, 32° C.; for MIC < 50%: lowest concentration with growth less than 50% of control; for MLC: minimum lethal concentration, absence of growth on agar
Procedure: as §1, §2

Candida albicans = assay: as above; type: cell-based; conditions: Candida albicans (yeast); for MIC < 10%: lowest concentration with growth less than 10% of control; for MIC < 10% / MIC < 50%: approx. 24 h, 32° C.; for MIC < 50%: lowest concentration with growth less than 50% of control; for MLC: minimum lethal concentration, absence of growth on agar
Procedure: as §1, §2

| Compound | Biodegradation (%) ([1]; day 0) | Biodegradation (%) ([1]; day 2) | Biodegradation (%) ([1]; day 6) | Biodegradation (%) ([1]; day 7) | Biodegradation (%) ([1]; day 9) | Biodegradation (%) ([1]; day 14) | Biodegradation (%) ([1]; day 19) | Biodegradation (%) ([1]; day 23) | Biodegradation (%) ([1]; day 28) | Biodegradation (%) ([1]; day 29 (first line)) | Biodegradation (%) ([1]; day 29 (second line)) | MIC < 10% (Staphylococcus aureus) | MIC < 50% (Staphylococcus aureus) | MLC (Staphylococcus aureus) | MIC < 10% (Escherichia coli) | MIC < 50% (Escherichia coli) | MLC (Escherichia coli) | MIC < 10% (Candida albicans) | MIC < 50% (Candida albicans) | MLC (Candida albicans) |
| --- | --- | --- | --- | --- | --- | --- | --- | --- | --- | --- | --- | --- | --- | --- | --- | --- | --- | --- | --- | --- |
| CC(=O)[O-].[Na+] [sodium acetate] | 0% | 32% | 52% | 54% | 60% | 66% | 69% | 71% | 72% | 74% | 78% | – | – | – | – | – | – | – | – | – |
| CCCCCCCCCCCC[N+](C)(C)Cc1ccccc1.[Cl-] [BAC-12 linear, benzalkonium chloride, C12] | – | – | – | – | – | – | – | – | – | – | – | 0.0002 Weight percent | 0.0002 Weight percent | 0.0002 Weight percent | 0.00078 Weight percent | 0.00078 Weight percent | 0.00078 Weight percent | 0.0016 Weight percent | 0.00078 Weight percent | 0.0016 Weight percent |
| Oc1cc(Cl)ccc1Oc1ccc(Cl)cc1Cl [Triclosan] | – | – | – | – | – | – | – | – | – | – | – | 0.00002 Weight percent | 0.00002 Weight percent | 0.00003 Weight percent | 0.00010 Weight percent | 0.00010 Weight percent | 0.00010 Weight percent | 0.0016 Weight percent | 0.0016 Weight percent | >0.0016 Weight percent |

The next lines start with results.

| Biodegradation (%) ([1]; day 0) | Biodegradation (%) ([1]; day 2) | Biodegradation (%) ([1]; day 6) | Biodegradation (%) ([1]; day 7) | Biodegradation (%) ([1]; day 9) | Biodegradation (%) ([1]; day 14) | Biodegradation (%) ([1]; day 19) | Biodegradation (%) ([1]; day 23) | Biodegradation (%) ([1]; day 28) | Biodegradation (%) ([1]; day 29 (first line)) | Biodegradation (%) ([1]; day 29 (second line)) | Compound | MIC < 10% (Staphylococcus aureus) | MIC < 50% (Staphylococcus aureus) | MLC (Staphylococcus aureus) | MIC < 10% (Escherichia coli) | MIC < 50% (Escherichia coli) | MLC (Escherichia coli) | MIC < 10% (Candida albicans) | MIC < 50% (Candida albicans) | MLC (Candida albicans) |
| --- | --- | --- | --- | --- | --- | --- | --- | --- | --- | --- | --- | --- | --- | --- | --- | --- | --- | --- | --- | --- |
| 0% | 0% | 0% | 9% | 27% | 48% | 53% | 53% | 55% | 55% | 57% | CCCCC(CC)CC(C=O)CC (stereo not drawn) [Example 25, 2,4-diethyloctanal] | – | – | – | – | – | – | – | – | – |
| 0% | 0% | 15% | 21% | 31% | 47% | 54% | 56% | 57% | 57% | 61% | CCCCC(CC)CC(C)C=O (stereo not drawn) [Example 2, 4-ethyl-2-methyloctanal] | – | – | – | – | – | – | – | – | – |
